Source: patent US20240034731A1, “AZA-QUINAZOLINE COMPOUNDS AND METHODS OF USE” (Iambic Therapeutics, Inc., priority 2022, published 2024)

Legend:
[1] = tested on: MCF-7 cells; test: Cell Growth Inhibition, MCF-7 (CellTiterGlo, 6 days); type: cell-based; conditions: Homo sapiens, MCF7, 144 h, MCF-7, 6-day treatment
In short: (§1)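 MCF-7 (ER+ breast adenocarcinoma) or CCNE1-amplified OVCAR-3 cells, 500/well in RPMI with 10% FBS, treated with half-log dilutions typically 10-10,000 nM for 6 days at 37 °C. CellTiterGlo 2.0 luminescence gave % growth inhibition versus control; IC50 by four-parameter variable-slope fit.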

[2] = biological target: CDK6/Cyclin D3 (Homo sapiens (Human), UniProt Q00534); test: CDK6/Cyclin D3 ADP-Glo Kinase Assay; type: biochemical; conditions: 100 uM ATP, read-out: CDK6/ CyclinD3 IC50
Sequence of CDK6/Cyclin D3 (Q00534 whole entry): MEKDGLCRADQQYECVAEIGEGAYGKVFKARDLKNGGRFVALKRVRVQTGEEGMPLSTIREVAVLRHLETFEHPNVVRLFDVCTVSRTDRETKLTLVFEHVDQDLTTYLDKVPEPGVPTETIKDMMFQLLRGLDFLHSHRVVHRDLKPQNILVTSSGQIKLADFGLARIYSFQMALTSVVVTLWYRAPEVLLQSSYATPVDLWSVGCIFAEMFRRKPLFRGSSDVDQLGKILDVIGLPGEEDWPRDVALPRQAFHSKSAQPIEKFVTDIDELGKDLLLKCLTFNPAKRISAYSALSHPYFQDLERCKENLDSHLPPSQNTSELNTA
Sequence of CDK6/Cyclin D3 (P30281 whole entry partner): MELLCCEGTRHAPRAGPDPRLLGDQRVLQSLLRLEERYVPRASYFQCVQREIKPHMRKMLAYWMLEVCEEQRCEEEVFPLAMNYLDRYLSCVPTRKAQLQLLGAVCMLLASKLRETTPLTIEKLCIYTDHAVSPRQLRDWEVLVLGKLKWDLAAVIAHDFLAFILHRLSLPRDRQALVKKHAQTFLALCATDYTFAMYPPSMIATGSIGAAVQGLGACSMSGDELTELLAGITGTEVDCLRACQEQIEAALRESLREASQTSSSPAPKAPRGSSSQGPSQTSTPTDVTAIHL
In short: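 Enzyme and inhibitor were pre-incubated for 30 min at room temperature before ATP/substrate was added. The kinase reaction ran 90 min at room temperature, and ADP formed was detected by ADP-Glo luminescence. IC50 was fitted with a 4-parameter equation to fractional velocity versus inhibitor concentration.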

[3] = tested on: OVCAR-3 cells; test: Cell Growth Inhibition, OVCAR-3 (CellTiterGlo, 6 days); type: cell-based; conditions: Homo sapiens, 144 h, OVCAR-3, 6-day treatment
In short: as §1

[4] = biological target: CDK1/Cyclin B1 (Homo sapiens (Human), UniProt P06493); test: CDK1/Cyclin B1 ADP-Glo Kinase Assay; type: biochemical; conditions: ADP-Glo, 80 uM ATP; read-out: CDK1 Cyclin B1 IC50
Sequence of CDK1/Cyclin B1 (P06493 whole entry): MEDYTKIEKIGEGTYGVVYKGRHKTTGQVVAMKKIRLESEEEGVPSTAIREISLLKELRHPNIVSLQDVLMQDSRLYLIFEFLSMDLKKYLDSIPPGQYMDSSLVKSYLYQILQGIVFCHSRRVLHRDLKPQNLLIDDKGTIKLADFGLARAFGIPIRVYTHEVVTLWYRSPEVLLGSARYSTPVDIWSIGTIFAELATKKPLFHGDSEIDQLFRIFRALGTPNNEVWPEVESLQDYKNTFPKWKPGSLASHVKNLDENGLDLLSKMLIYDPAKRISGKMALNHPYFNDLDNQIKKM
Sequence of CDK1/Cyclin B1 (P14635 whole entry partner): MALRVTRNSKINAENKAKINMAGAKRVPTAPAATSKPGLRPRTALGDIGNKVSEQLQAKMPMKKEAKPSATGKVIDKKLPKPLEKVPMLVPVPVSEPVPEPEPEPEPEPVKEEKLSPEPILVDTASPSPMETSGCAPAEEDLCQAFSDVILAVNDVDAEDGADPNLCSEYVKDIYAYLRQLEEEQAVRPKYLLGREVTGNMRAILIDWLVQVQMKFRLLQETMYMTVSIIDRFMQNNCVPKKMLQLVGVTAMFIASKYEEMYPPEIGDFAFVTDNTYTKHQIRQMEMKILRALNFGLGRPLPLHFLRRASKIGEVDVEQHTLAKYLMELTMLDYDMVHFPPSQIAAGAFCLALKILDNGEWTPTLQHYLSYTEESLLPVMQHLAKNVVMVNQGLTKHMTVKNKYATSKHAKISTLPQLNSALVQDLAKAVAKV
In short: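 Enzyme and inhibitor pre-incubated 30 min at room temperature before ATP/substrate addition; reaction run 90 min at room temperature. ADP formed measured by ADP-Glo luminescence; IC50 from a 4-parameter fit of fractional velocity versus inhibitor concentration.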

[5] = biological target: CDK2/Cyclin E1 (Homo sapiens (Human), UniProt P24941); test: CDK2/Cyclin E1 Full length ADP-Glo Kinase Assay; type: biochemical; conditions: 20 uM ATP, read-out: CDK2/ CyclinE1 IC50
In short: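 Full-length human CDK2/cyclin E1 was preincubated 30 min at room temperature with inhibitor, then reacted 90 min with ATP-containing substrate solution. ADP formed was measured by ADP-Glo luminescence; IC50 from 4-parameter fit of fractional velocity versus inhibitor concentration.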

[6] = biological target: T1, CDK4/Cyclin D1 (Homo sapiens (Human), UniProt P11802); test: CDK4/Cyclin D1 Mobility Shift Assay (MSA); type: biochemical; conditions: 0.2 mM ATP, read-out: CDK4/ CyclinD1 MSA IC50
T1 sequence (P11802 whole entry): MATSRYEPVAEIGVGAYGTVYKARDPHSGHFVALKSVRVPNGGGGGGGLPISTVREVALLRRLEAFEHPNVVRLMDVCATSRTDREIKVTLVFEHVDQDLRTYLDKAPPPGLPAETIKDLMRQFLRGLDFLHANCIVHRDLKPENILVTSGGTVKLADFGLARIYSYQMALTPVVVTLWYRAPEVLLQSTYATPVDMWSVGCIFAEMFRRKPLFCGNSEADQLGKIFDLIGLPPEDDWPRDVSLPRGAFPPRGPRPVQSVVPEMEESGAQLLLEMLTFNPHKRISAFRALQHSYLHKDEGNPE
T1 sequence (P24385 whole entry partner): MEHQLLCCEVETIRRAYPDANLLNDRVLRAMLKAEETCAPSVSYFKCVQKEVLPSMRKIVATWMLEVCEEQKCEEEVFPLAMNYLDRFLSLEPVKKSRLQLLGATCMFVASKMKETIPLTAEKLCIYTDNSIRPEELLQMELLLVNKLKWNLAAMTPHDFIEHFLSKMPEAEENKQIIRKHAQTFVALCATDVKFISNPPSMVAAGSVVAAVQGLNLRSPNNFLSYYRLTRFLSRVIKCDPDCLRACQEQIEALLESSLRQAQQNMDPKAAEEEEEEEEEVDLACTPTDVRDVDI
From the text: CDK4/Cyclin D1 Mobility Shift Assay (MSA)
The purpose CDK4/Cyclin D1 assay is to evaluate the inhibition (% inhibition and IC50 values) in the presence of small molecule inhibitors by using a fluorescence based microfluidic mobility shift assay. CDK4/Cyclin D1 catalyzes the production of ADP from ATP that accompanies the phosphoryl transfer to the substrate peptide 5-FAM-Dyrktide (5-FAM-[…]) (Perkin Elmer Peptide 34). The mobility shift assay (MSA) electrophoretically separates the fluorescently labelled peptides (substrate and phosphorylated product) following the kinase reaction. Both substrate and product are measured, and the ratio of these values is used to generate % conversion of substrate to product by the LabChip EZ Reader. Typical reaction solutions contained 2% DMSO (+/− inhibitor), 10 mM MgCl2, 1 mM EGTA, 0.05% BSA, 2 mM DTT, 0.2 mM ATP, 0.01% Brig-35, 1.5 uM 5-FAM-Dyrktide, 2.5 nM CDK4/Cyclin D1 in 50 mM HEPES buffer at pH 7.5. The reaction was initiated with the addition of substrate solution, following a 30-minute pre-incubation of enzyme and inhibitor at 22° C. in the reaction mix. The reaction was stopped after 180 minutes by the addition of 75 uL of 500 mM EDTA and measured on a Perkin Elmer EZ reader instrument. IC50 determinations were made from a plot of the fractional velocity as a function of inhibitor concentration fit to the 4 parameters IC50 equation.

[7] = biological target: T1, CDK4/Cyclin D1; test: CDK4/Cyclin D1 CHEF Assay (AQT0258 peptide); type: biochemical; conditions: 200 uM ATP, read-out: CDK4/ CyclinD1 AQT IC50
In short: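 Sox-labelled peptide AQT0258 phosphorylation read as chelation-enhanced fluorescence (ex 360/em 485 nm) with Mg(II). Enzyme preincubated with inhibitor 30 min at 22°C, substrate added, 3 h at 22°C; IC50 from four-parameter fit of fractional velocity versus inhibitor concentration.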

| IC50 [1] [nM] | IC50 [2] [nM] | IC50 [3] [nM] | IC50 [4] [nM] | IC50 [5] [nM] | IC50 [6] [nM] | IC50 [7] [nM] | SMILES |
| --- | --- | --- | --- | --- | --- | --- | --- |
| 500 to 2000 | 200 to 500 | > 2000 | 500 to 2000 | < 200 | < 200 | – | CS(=O)(=O)N1CCC(Nc2ncc3ccnc(N4CCN(C5CC5)CC4)c3n2)CC1 [Compound 1, 8-(4-cyclopropylpiperazin-1-yl)-N-(1-(methylsulfonyl)piperidin-4-yl)pyrido[3,4-d]pyrimidin-2-amine] |
| 500 to 2000 | < 200 | < 200 | < 200 | < 200 | < 200 | – | CS(=O)(=O)N1CCC(Nc2ncc3ccnc(N4CCC5(C4)CC5(F)F)c3n2)CC1 (stereo not drawn) [Compound 3, 8-(1,1-difluoro-5-azaspiro[2.4]heptan-5-yl)-N-(1-(methylsulfonyl)piperidin-4-yl)pyrido[3,4-d]pyrimidin-2-amine] |
| 200 to 500 | < 200 | 500 to 2000 | 200 to 500 | < 200 | < 200 | – | CN1CCN(c2ccc(Nc3ncc4ccnc(N5CCC6(C5)CC(F)(F)C6)c4n3)cc2)CC1 [Compound 4, 8-(2,2-difluoro-6-azaspiro[3.4]octan-6-yl)-N-(4-(4-methylpiperazin-1-yl)phenyl)pyrido[3,4-d]pyrimidin-2-amine] |
| 500 to 2000 | < 200 | 500 to 2000 | < 200 | < 200 | < 200 | – | CS(=O)(=O)N1CCC(Nc2ncc3ccnc(N4CCC(C#N)(C5CC5)C4)c3n2)CC1 (stereo not drawn) [Compound 5, 3-cyclopropyl-1-(2-((1-(methylsulfonyl)piperidin-4-yl)amino)pyrido[3,4-d]pyrimidin-8-yl)pyrrolidine-3-carbonitrile] |
| 500 to 2000 | – | < 200 | 200 to 500 | – | < 200 | – | CS(=O)(=O)N1CCC(Nc2ncc3ccnc(N4CC5(C4)CN(C4CC4)C5)c3n2)CC1 [Compound 8, 8-(6-cyclopropyl-2,6-diazaspiro[3.3]heptan-2-yl)-N-(1-(methylsulfonyl)piperidin-4-yl)pyrido[3,4-d]pyrimidin-2-amine] |
| 500 to 2000 | – | 500 to 2000 | 200 to 500 | – | < 200 | – | CN1CCN(c2ccc(Nc3ncc4ccnc(N5CCC6(CCN(S(C)(=O)=O)C6)C5)c4n3)cc2)CC1 (stereo not drawn) [Compound 9, N-(4-(4-methylpiperazin-1-yl)phenyl)-8-(7-(methylsulfonyl)-2,7-diazaspiro[4.4]nonan-2-yl)pyrido[3,4-d]pyrimidin-2-amine] |
| – | < 200 | – | > 2000 | 200 to 500 | < 200 | – | CCN1CC2(C1)CN(c1ccc(Nc3ncc4ccnc(N5CCC6(C5)CC6(F)F)c4n3)nc1)C2 (stereo not drawn) [Compound 21, 8-(1,1-difluoro-5-azaspiro[2.4]heptan-5-yl)-N-(5-(6-ethyl-2,6-diazaspiro[3.3]heptan-2-yl)pyridin-2-yl)pyrido[3,4-d]pyrimidin-2-amine] |
| 500 to 2000 | < 200 | > 2000 | < 200 | < 200 | – | < 200 | CS(=O)(=O)N1CCC(Nc2ncc3cc(C4CC4)nc(N4CC(F)(F)C5(CNC5)C4)c3n2)CC1 [Example 60, 6-cyclopropyl-8-(8,8-difluoro-2,6-diazaspiro[3.4]octan-6-yl)-N-(1-(methylsulfonyl)piperidin-4-yl)pyrido[3,4-d]pyrimidin-2-amine] |
| 500 to 2000 | < 200 | 500 to 2000 | < 200 | < 200 | – | < 200 | Cc1cc2cnc(NC3CCN(S(=O)(=O)C4CC4)CC3)nc2c(N2CC(F)(F)C3(CNC3)C2)n1 [Example 62, N-(1-(cyclopropylsulfonyl)piperidin-4-yl)-8-(8,8-difluoro-2,6-diazaspiro[3.4]octan-6-yl)-6-methylpyrido[3,4-d]pyrimidin-2-amine] |
